GI50 data for two molecules are collected here from patent publication US20240262815A1, “HETEROARYL DERIVATIVE, METHOD FOR PREPARING SAME, AND PHARMACEUTICAL COMPOSITION COMPRISING SAME AS ACTIVE INGREDIENT” (VORONOI INC., priority 2021, published 2024).

One experiment concerns SK-BR-3 cancer cells. In words: Inhibitory activity against proliferation of SK-BR-3 cancer cells (CellTiter-Glo). The following applies: Homo sapiens, SK-BR-3, 120 h, ErbB2-overexpressing SK-BR-3 cells, 120 hours after treatment. The experiment is classed as cell-based. Put shortly: (§1)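 GI50 derived from % growth relative to control, measured by CellTiter-Glo luminescence after 120 h compound exposure (12 concentrations, 0.2 nM-5 μM final, n=3). BT-474 grown in RPMI-1640/20% FBS, SK-BR-3 in McCOY'S 5A/10% FBS; seeding 48 h pre-treatment.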
(ATP-based viability assays read luminescence as a measure of living cells.)

In the next experiment the test system is BT-474 cancer cells. In words: Inhibitory activity against proliferation of BT-474 cancer cells (CellTiter-Glo). The experiment is classed as cell-based. The following applies: Homo sapiens, BT-474 ErbB2-overexpressing cancer cells, 120 hours after treatment. Put shortly: as §1

A word on the GI50: it is the concentration giving 50% growth inhibition. `C=CC(=O)Nc1cc(Nc2cc(N3OCCC3c3ccc(F)c(OCc4cccc(F)c4)c3)ncn2)c(OC)cc1N1CCC(N2CCN(C3CC3)CC2)CC1` (stereo not shown) [Example compound 150, N-(2-(4-(4-cyclopropylpiperazin-1-yl)piperidin-1-yl)-5-((6-(3-(4-fluoro-3-((3-fluorobenzyl)oxy)phenyl)isoxazolidin-2-yl)pyrimidin-4-yl)amino)-4-methoxyphenyl)acrylamide]: the GI50 in the experiment with SK-BR-3 cancer cells and with BT-474 cancer cells was less than 50 nM in each case.

Consider `C=CC(=O)Nc1cc(Nc2cc(N3OCCC3c3ccc(F)c(OCc4cccc(F)c4)c3)ncn2)c(OC)cc1N1CCN(C)CC1` (stereo not shown) [Example compound 151, N-(5-((6-(3-(4-fluoro-3-((3-fluorobenzyl)oxy)phenyl)isoxazolidin-2-yl)pyrimidin-4-yl)amino)-4-methoxy-2-(4-methylpiperazin-1-yl)phenyl)acrylamide], for which the GI50 with SK-BR-3 cancer cells and in the experiment with BT-474 cancer cells was less than 50 nM each time.
